Converted amounts (≈) assume the structure as drawn. Counter-ions that a name gives are not always drawn. Like-named read-outs stand apart in the source and are kept apart here.
Experiments:
Assay in all cases: Fungal susceptibility test, broth microdilution method (MIC)
Format in all cases: cell-based
[1] = system: Aspergillus fumigatus TIMM 0063; details: TIMM0063, 48 h
Protocol: (§1) The fungal susceptibility tests on test substances were conducted by the broth microdilution method equivalent to Clinical and Laboratory Standards Institute method. The medium used in the susceptibility tests was RPMI1640 adjusted to pH 7.0 with 0.165 mol/L morpholinepropanesulfonic acid (MOPS) and 50% sodium hydroxide (RPMI/MOPS). Each test substance was dissolved in DMSO and serially diluted in 2-fold increments with DMSO on a 96-well microplate. Then, the dilutions were dispensed by 1 μL to a 96-well microplate. Candida albicans TIMM 1623 cultured overnight at 35° C. in Sabouraud's agar medium was suspended in sterile saline. The number of cells was counted under a biological microscope, and the fungal suspension was diluted with RPMI/MOPS to prepare the inoculum solution (approximately 1×10^3 cells/mL). Alternatively, Candida albicans TIMM 1623 stored at −80° C. was diluted with RPMI/MOPS to prepare the inoculum solution (approximately 1×10^3 CFU/mL). Aspergillus fumigatus TIMM 0063 stored at 5° C. was diluted with RPMI/MOPS to prepare the inoculum solution (approximately 1×10^4 CFU/mL). Trichophyton rubrum NBRC 5467 stored at 5° C. or −80° C. was diluted with RPMI/MOPS to prepare the inoculum solution (approximately 2×10^3 CFU/mL). The 199 μL of inoculum solution was dispensed to each well to prepare the microplate containing the designated concentrations of test substance, medium and fungal cells. Candida albicans and Aspergillus fumigatus were cultured at 35° C. for 2 days. Trichophyton rubrum was cultured at 35° C. for 4 days. After the completion of culture, MIC was determined by visual observation. The MICs of Candida albicans and Aspergillus fumigatus were set to the lowest concentration at which approximately 50% growth inhibition was seen, when compared with a growth control without the addition of the test substance. The MIC of Trichophyton rubrum was set to the lowest concentration at which approximately 80% growth inhibition was seen, when compared with a growth control without the addition of the test substance.

[2] = system: Trichophyton rubrum NBRC 5467; details: NBRC5467, 96 h
Protocol: as §1

[3] = system: Candida albicans TIMM 1623; details: TIMM1623, 48 h
Protocol: as §1

[4] = RPMI/MOPS pH 7.0, 35° C. for 2 days, visual, lowest concentration with approximately 50% growth inhibition, read-out: MIC (μg/mL) A. fumigatus TIMM 0063
[5] = RPMI/MOPS pH 7.0, 35° C. for 4 days, visual, lowest concentration with approximately 80% growth inhibition, read-out: MIC (μg/mL) T. rubrum NBRC5467
[6] = pH 7, read-out: MIC (μg/mL) A. fumigatus TIMM 0063
[7] = pH 7, read-out: MIC (μg/mL) T. rubrum NBRC5467
[8] = pH 7, read-out: MIC (μg/mL) C. albicans TIMM1623
[9] = RPMI/MOPS pH 7.0, 35° C. for 2 days, visual, lowest concentration with approximately 50% growth inhibition, read-out: MIC (μg/mL) C. albicans TIMM1623

| Structure (SMILES) | MIC [1, 4] [µg/mL] | MIC [2, 5] [µg/mL] | MIC [3, 9] [µg/mL] | MIC [1, 6] [µg/mL] | MIC [2, 7] [µg/mL] | MIC [3, 8] [µg/mL] |
| --- | --- | --- | --- | --- | --- | --- |
| CCN(C)/C=N/c1cc(C)c(Cc2nc(-c3ccc(C)cc3)cs2)cc1C [Example 3, N′-(2,5-Dimethyl-4-{[4-(4-methylphenyl)-1,3-thiazol-2-yl]methyl}phenyl)-N-ethyl-N-methylimidoformamide dihydrochloride] | – | – | – | 0.0156 | 0.0005 | 0.0156 |
| CCN(C)/C=N/c1cc(C)c(Cc2nc(-c3ccc(C(=O)NC(C)(C)C)cc3)cs2)cc1C [Example 24, N-Tert-butyl-4-{2-[4-({(E)-[ethyl(methyl)amino]methylidene}amino)-2,5-dimethylbenzyl]-1,3-thiazol-4-yl}benzamide dihydrochloride] | – | – | – | – | 0.0039 | 0.0313 |
| CCN(C)/C=N/c1cc(C)c(Cc2nc(C(C)(C)C)cs2)cc1C [Example 29, N′-{4-[(4-Tert-butyl-1,3-thiazol-2-yl)methyl]-2,5-dimethylphenyl}-N-ethyl-N-methylimidoformamide dihydrochloride] | – | – | – | – | 0.0039 | 0.0625 |
| CCN(C)/C=N/c1cc(C)c(Cc2nc(-c3cscn3)cs2)cc1C [Example 48, N′-[4-(4,4′-Bi-1,3-thiazol-2-ylmethyl)-2,5-dimethylphenyl]-N-ethyl-N-methylimidoformamide hydrochloride] | – | – | – | – | 0.0078 | 0.0625 |
| CCN(C)/C=N/c1cc(C)c(Cc2nc(-c3ccc(Cl)cc3)cs2)cc1C [Example 49, N′-(4-{[4-(4-Chlorophenyl)-1,3-thiazol-2-yl]methyl}-2,5-dimethylphenyl)-N-ethyl-N-methylimidoformamide hydrochloride] | – | – | – | 0.0625 | – | 0.0156 |
| CCN(C)/C=N/c1cc(C)c(Cc2nc(-c3ccc(C)cc3F)cs2)cc1C [Example 59, N-Ethyl-N′-(4-{[4-(2-fluoro-4-methylphenyl)-1,3-thiazol-2-yl]methyl}-2,5-dimethylphenyl)-N-methylimidoformamide dihydrochloride] | – | – | – | 0.0313 | 0.0005 | 0.0156 |

Second part, led by results:

| MIC [1, 4] [µg/mL] | MIC [2, 5] [µg/mL] | MIC [3, 9] [µg/mL] | Structure (SMILES) | MIC [1, 6] [µg/mL] | MIC [2, 7] [µg/mL] | MIC [3, 8] [µg/mL] |
| --- | --- | --- | --- | --- | --- | --- |
| 0.0625 (≈ 0.16 µM) | 0.0039 (≈ 0.01 µM) | – | Cc1ccc(-c2csc(Cc3cc(C)c(/N=C/N4CCCC4)cc3C)n2)cc1 [Example 1, 2,5-Dimethyl-4-{[4-(4-methylphenyl)-1,3-thiazol-2-yl]methyl}-N-[(E)-pyrrolidin-1-ylmethylidene]aniline] | – | – | – |
| 0.0313 (≈ 0.0827 µM) | 0.002 (≈ 0.00528 µM) | 0.0313 (≈ 0.0827 µM) | CCN(C)/C=N/c1cc(C)c(Cc2nc(-c3ccc(C)cc3)ns2)cc1C [Example 16, N′-(2,5-Dimethyl-4-{[3-(4-methylphenyl)-1,2,4-thiadiazol-5-yl]methyl}phenyl)-N-ethyl-N-methylimidoformamide] | – | – | – |
| 0.0625 | – | 0.0625 | CCN(C)/C=N/c1cc(C)c(Cc2nc(-c3cnc(OC)cn3)cs2)cc1C [Example 26, N-Ethyl-N′-(4-{[4-(5-methoxypyrazin-2-yl)-1,3-thiazol-2-yl]methyl}-2,5-dimethylphenyl)-N-methylimidoformamide hydrobromide] | – | – | – |
| 0.0625 | – | 0.0625 | CCN(C)/C=N/c1cc(C)c(Cc2nc(C(=O)c3ccc(Cl)cc3)cs2)cc1C [Example 27, N′-[4-({4-[(4-Chlorophenyl)carbonyl]-1,3-thiazol-2-yl}methyl)-2,5-dimethylphenyl]-N-ethyl-N-methylimidoformamide hydrobromide] | – | – | – |
| 0.0625 | 0.001 | 0.0156 | CCN(C)/C=N/c1cc(C)c(Cc2nc(-c3cc(F)c(C)cc3F)cs2)cc1C [Example 58, N′-(4-{[4-(2,5-Difluoro-4-methylphenyl)-1,3-thiazol-2-yl]methyl}-2,5-dimethylphenyl)-N-ethyl-N-methylimidoformamide hydrobromide] | – | – | – |
| – | 0.001 (≈ 0.00245 µM) | 0.0156 (≈ 0.0383 µM) | CCN(C)/C=N/c1cc(C)c(Cc2nc(COc3ccc(C)cc3)cs2)cc1C [Example 60, N′-[2,5-Dimethyl-4-({4-[(4-methylphenoxy)methyl]-1,3-thiazol-2-yl}methyl)phenyl]-N-ethyl-N-methylimidoformamide] | – | – | – |

From US9045466B2, “Amidine compound or salt thereof” (priority 2011, dated 2015)
